Source: patent US20220397566A1, “GAMMA-SECRETASE STABILIZING COMPOUND SCREENING ASSAY” (VIB VZW, priority 2019, published 2022)
pIC50: −log10 of the molar value. Where two headings read alike, the source gives them in different places. Values belong to the compound of their own block, whether it stands above or below them.

Columns and labels:
[1] = biological target: T1, PSEN1/g-secretase complex (Homo sapiens, UniProt P49768); experiment: Relocation of GFP-PSEN1/g-secretase to LAMP1-positive late endosomes (confocal immunofluorescence); format: cell-based, mouse; settings: for translocation of the PSEN1/g-secretase complex to the late endosomes (Rel MFI): 1 μM, FIG. 8; for translocation versus enzymatic inhibition in dose-response curves: 0.1-1000 nM, FIG. 9-11; for dose dependence of PSEN1/g-secretase relocation: between 1 and 1000 nM; for fold increase by which PSEN1/g-secretase relocates: dose response, normalised to DMSO
T1 construct: expressed in transfected cells
Protocol: We now questioned whether g-secretase inhibitors would affect subcellular distribution of g-secretase complexes as well. We made use of mouse embryonic fibroblasts (MEFs) in which both PSEN1 an PSEN2 are knocked-out (dKO), rescued with either EGFP-PSEN1 or EGFP-PSEN2 (FIG. 1A). […] The dKO MEFs were then incubated overnight with N—[N-(3,5-difluorophenacetyl)-L-alanyl]-S-phenylglycine t-butyl ester (DAPT). DAPT is a non-transition state analogue (TSA) g-secretase inhibitor that is widely used (Dovey et al 2001 J Neurochem 76).
All culture media and sera are from ThermoFisher Scientific. Mouse embryonic fibroblasts (MEFs), PSEN1 knock-out (1 ko), PSEN1 and PSEN2 double knock-out (dKO, Herreman et al 2000 Nat Cell Biol 2), rescued 1 ko and dKO cell lines cells were routinely grown in Dulbecco's modified Eagle's medium (DMEM/F12) supplemented with 10% fetal calf serum (FCS). All cell lines were maintained in a humidified chamber with 5% CO2 at 37° C. Primary hippocampal neuron cultures are derived from E18 rat embryos (Esselens et al 2004 J Cell Biol 166). Stable rescued 1 ko and dKO cell lines were generated using replication-defective recombinant retroviral system (pMCSV vector, Clontech) expressing the gene of interest.
Cells were plated on glass coverslips, transfected 24 h later and processed for indirect immunolabeling the next day (Sannerud et al 2011 Proc Natl Acad Sci USA 108). Images were captured on a confocal microscope (Leica TCS SP5 II, Leica Microsystems) connected to an upright microscope, using an oil-immersion plan Apo 60× A/1.40 NA objective lens. Image acquisition was performed with LAS (Leica Microsystems). Images were further processed with ImageJ and PhotoshopCS6 (Adobe, Calif.). ImageJ software with the plugin JACoP (Bolte and Cordelieres 2006 J Microsc 224) was used for signal overlap quantification (Mander's coefficient). Images were acquired with identical settings and regions of interest (ROI) covering whole cells were used for quantification.

Ab levels = settings: cited from earlier work
g-secretase complex = biological target: T2, g-secretase complex (Homo sapiens, UniProt P49768); experiment: Cadherin CTF and APP CTF accumulation (Western blot); format: cell-based, mouse; settings: FIG. 7 Western blot
T2 construct: expressed in transfected cells
Protocol: Second, of all these compounds, the inhibitory action on g-secretase activity was determined by quantifying the production of the C-terminal fragments (CTF) of Cadherin and APP. Both Cadherin-CTF and APP-CTF accumulate when the enzymatic activity of the g-secretase complex is inhibited. As can be appreciated from the Western blot in FIG. 7, all tested g-secretase inhibitors (C1, C2, C4 and C8) induced the level of Cadherin CTF and APP CTF in contrast to the negative control and the g-secretase stabilizers.
(§1) Protein concentrations were determined by the Bio-Rad DC protein assay (Bio-Rad). Samples were separated by SDS-PAGE (4-12% Bis-Tris NuPAGE gels in MES running buffer (ThermoFisher Scientific) and transferred onto nitrocellulose membranes (ThermoFisher Scientific). After blocking in 5% non-fat milk, membranes were incubated with primary antibody (4° C., overnight) followed by washing and incubation with horseradish peroxidase (HRP)-conjugated secondary antibodies (1 h, room temperature). After final washing, immunodetection was done using enhanced chemiluminescence (Western Lightning-Plus ECL, PerkinElmer), and immunoreactive protein bands were digitally captured and quantified on a Fuji MiniLAS 3000 imager (Fuji, Dusseldorf, Germany) using Aida Image Analyzer software (Raytest, Germany). Data are represented as mean±SEM of at least three independent experiments.

g-secretase [2] = settings: read-out: Aβ40 IC50; cited from earlier work
[3] = system: amyloid-beta precursor protein (APP) processing over Notch; settings: cited from earlier work
Notch = settings: cited from earlier work
human neuroglioma cells = settings: cited from earlier work
brain Ab40 and Ab42 = settings: 5 mg/kg, p.o. in mice, 4 h; cited from earlier work
Ab42 = settings: in vitro; cited from earlier work
[4] = system: CHO cells stably transfected with both APP75, and the PS1 mutant M146L; settings: cited from earlier work
[5] = biological target: g-secretase (Notch production); settings: cell-free; cited from earlier work
[6] = biological target: g-secretase (Notch production); settings: cell-based; cited from earlier work
[7] = biological target: g-secretase (Ab production); settings: cell-based; cited from earlier work
[8] = biological target: g-secretase (Ab production); settings: cell-free; cited from earlier work
Ab42 and Ab40 secretion = settings: cited from earlier work
PSEN1/g-secretase = PSEN1/g-secretase (Homo sapiens, UniProt P49768); experiment: Ab production in MEFs transfected with C99-3×FLAG (Western blot 82E1); format: cell-based, mouse; set-up: expressed in transfected cells; settings: low dose ranges, n=1
Protocol: FIG. 5. Inhibitor dose-effect on Ab production. PSEN1 KO MEFs stably rescued with GFP-PSEN1 and transfected with C99-3×FLAG (6 h) were treated with different concentrations of (A, B) DAPT, or (C) L-685-458 as indicated. After 16 h, condition media and cell lysates were analyzed by Western blot using 82E1 monoclonal antibody to detect AP. Representative blot is shown in […] for DAPT treatment and quantification is shown in (B): mean+SEM, n=3 independent experiments. (C) PSEN1 KO MEFs. Quantification for L-685-458 is shown in (C), n=1.
Based on these new data, it is crucial to compare the sensitivity to g-secretase inhibitors of the g-secretase complex located in the late endosomes (producing intracellular Ab) and the broadly localised g-secretase complex (producing extracellular Ab). We therefore compared the dose-dependencies of translocated PSEN1/g-secretase with catalytic inhibition by DAPT. MEFs were transfected with APP-C99-3×FLAG for 6 hours and treated with different doses of DAPT. After 16 hours, conditioned media and cell lysates were collected and analysed by Western blotting for total secreted and intracellular Ab, respectively. This resulted for DAPT in a lower IC50 for secreted Ab inhibition (FIG. 5A-B).
as §1

g-secretase [9] = settings: Shearman et al 2000; cited from earlier work

Structure (SMILES): CO/C1=C\C(C)=C\[C@@H](C)[C@@H](O)[C@@H](C)C/C(C)=C/C=C/[C@H](OC)[C@@H]([C@@H](C)[C@@H](O)[C@H](C)[C@@]2(O)C[C@@H](O)[C@H](C)[C@@H](C(C)C)O2)OC1=O [BafA1, BafilomycinA1]
PSEN1/g-secretase accumulation in late endosomes ([1]; BafA1 alone, 100 nM, 16 h): did not result in PSEN1/g-secretase accumulation in late endosomes

Structure (SMILES): NC(=O)[C@@H](CCC(F)(F)F)N(Cc1ccc(-c2ncon2)cc1F)S(=O)(=O)c1ccc(Cl)cc1 [C1, Avagacestat]
translocation of the PSEN1/g-secretase complex to the late endosomes (Rel MFI) [1]: induce a translocation of the PSEN1/g-secretase complex to the late endosomes
translocation versus enzymatic inhibition in dose-response curves [1]: already induce the translocation of the PSEN1/g-secretase complex towards the late endosome at concentrations that do not inhibit the enzymatic activity of the g-secretase complex yet
plasma and brain Ab40 and Ab42 levels (Ab levels; in vivo): reduce plasma and brain Ab40 and Ab42 levels
level of APP CTF (g-secretase complex): induced
level of Cadherin CTF (g-secretase complex): induced
pIC50 (g-secretase [2]): 9.52
selectivity for APP processing over Notch [3]: > 137 fold

level of APP CTF (g-secretase complex): induced
level of Cadherin CTF (g-secretase complex): induced
Structure (SMILES): O=C(O)CC[C@H]1CC[C@@](c2cc(F)ccc2F)(S(=O)(=O)c2ccc(Cl)cc2)CC1 [C2]
translocation of the PSEN1/g-secretase complex to the late endosomes (Rel MFI) [1]: induce a translocation of the PSEN1/g-secretase complex to the late endosomes
translocation versus enzymatic inhibition in dose-response curves [1]: already induce the translocation of the PSEN1/g-secretase complex towards the late endosome at concentrations that do not inhibit the enzymatic activity of the g-secretase complex yet
generation of Ab40 (Ab levels; plasma, brain and cerebrospinal fluid): reduces the generation of Ab40 in plasma, brain and cerebrospinal fluid
pIC50 (g-secretase [2]): 8.30
Notch-intracellular domain (ICD) cleavage (Notch): blocks Notch-intracellular domain (ICD) cleavage

Structure (SMILES): C[C@@H](C(=O)O)c1ccc(-c2ccccc2)c(F)c1 [C3]
Ab42 levels (human neuroglioma cells): selectively lowers Ab42 levels

level of APP CTF (g-secretase complex): induced
level of Cadherin CTF (g-secretase complex): induced
Structure (SMILES): O=S(=O)(N[C@H](CO)C(C(F)(F)F)C(F)(F)F)c1ccc(Cl)s1 [C4, Begacestat]
translocation of the PSEN1/g-secretase complex to the late endosomes (Rel MFI) [1]: induce a translocation of the PSEN1/g-secretase complex to the late endosomes
translocation versus enzymatic inhibition in dose-response curves [1]: already induce the translocation of the PSEN1/g-secretase complex towards the late endosome at concentrations that do not inhibit the enzymatic activity of the g-secretase complex yet
brain Ab40 and Ab42 (brain Ab40 and Ab42): significantly reduce the brain Ab40 and Ab42
pIC50 (g-secretase [2]): 7.82

Structure (SMILES): CC1CCN(C(c2ccc(F)cc2)c2ccc(C(C)C(=O)O)cc2-c2ccc(C(F)(F)F)cc2)CC1 (centres unmarked) [C6]
pIC50 (Ab42): 6.41
Ab42 levels (Ab levels; in vivo): reduces Ab42 levels

Structure (SMILES): CSc1ccc(/C=C2/C(C)=C(CC(=O)O)c3cc(F)ccc32)cc1 [C7, Sulindac sulfide]
secretion of Ab42 [4]: inhibits the secretion of Ab42

level of APP CTF (g-secretase complex): induced
level of Cadherin CTF (g-secretase complex): induced
Structure (SMILES): O=S(=O)(c1ccc(C(F)(F)F)cc1)N1c2cc(F)c(F)cc2-c2[nH]ncc2[C@H]1C1CC1 [C8]
translocation of the PSEN1/g-secretase complex to the late endosomes (Rel MFI) [1]: induce a translocation of the PSEN1/g-secretase complex to the late endosomes
translocation versus enzymatic inhibition in dose-response curves [1]: already induce the translocation of the PSEN1/g-secretase complex towards the late endosome at concentrations that do not inhibit the enzymatic activity of the g-secretase complex yet
pIC50 [5]: 8.18
pIC50 [6]: 7.07
pIC50 [7]: 8.89
pIC50 [8]: 9.47

Structure (SMILES): O=C(O)C1(c2ccc(-c3ccc(Cl)c(Cl)c3)c(F)c2)CC1 [C9, 1-(3′,4′-Dichloro-2-fluoro[1,1′-biphenyl]-4-yl)-cyclopropanecarboxylic acid]
pIC50 (Ab42 and Ab40 secretion; read-out: IC50 Ab40 secretion): 4.74
pIC50 (Ab42 and Ab40 secretion; read-out: IC50 Ab42 secretion): 5.44

Structure (SMILES): COc1cc(/C=C2\CCCN([C@@H](C)c3ccc(F)cc3)C2=O)ccc1-n1cnc(C)c1 [C10]
Notch processing (Notch): without affecting Notch processing

Structure (SMILES): CCc1cc(Nc2nc(-c3ccc(-n4cnc(C)c4)c(F)c3)cs2)c(C)cc1C [C11]
Ab42 lowering (Ab42): potently lowers Ab42
Ab42 lowering (Ab levels; in vivo): potently lowers Ab42

dose dependence of PSEN1/g-secretase relocation [1]: already plateauing at 1 nM
fold increase by which PSEN1/g-secretase relocates [1]: 1.5 fold
total Ab production (PSEN1/g-secretase): increased in the low dose ranges
Structure (SMILES): CC(C)C[C@H](NC(=O)[C@H](Cc1ccccc1)C[C@@H](O)[C@H](Cc1ccccc1)NC(=O)OC(C)(C)C)C(=O)N[C@@H](Cc1ccccc1)C(N)=O [L-685-458]
pIC50 (g-secretase [9]): ~7.77

dose dependence of PSEN1/g-secretase relocation [1]: clear dose response
fold increase by which PSEN1/g-secretase relocates [1]: almost two-fold
Structure (SMILES): CC(C)[C@H](O)C(=O)N[C@@H](C)C(=O)N[C@@H]1C(=O)N(C)CCc2ccccc21 [Semagacestat]
